Laboratory results: patent publication US20230277669A1, “USES OF UROLITHINS” (Amazentis SA, priority 2022, published 2023)

Tests used:
AOM-induced colon tumors = test: AOM-induced tumorigenesis with UA-containing diets; format: in vivo, FVB mice
Description: (§1) Oral UA confers anti-tumor effects in murine colorectal cancer in a T-cell dependent manner. (FIG. 1A) Schematic representation of AOM model and different UA containing diets. (FIG. 1B) Representative images of swiss-roll sections from AOM-induced colon tumors. Scale bars are 2 mm (upper row) and 300 µm (lower row), respectively. (FIG. 1C) Tumor incidence of AOM-induced tumors receiving different UA-containing diets; n=4/5/5. Data are mean ±SD, depicting one of two independent experiments. *p < 0.05 by two-sided t-test. (FIG. 1D) Average lesion size of AOM-induced tumors receiving different UA-containing diets; n=4/5/5. Data are mean ±SD, depicting one of two independent experiments. *p < 0.05 by two-sided t-test. (FIG. 1E) Relative number of CD45^+CD3^+ T cells in colons of AOM-treated mice at week 24 (n>7, pooled from two independent experiments). Data are mean ± SD, **p < 0.01 by two-sided t-test. (FIG. 1F) Organoid treatment scheme. APTK-organoids were incubated in the presence of UA or DMSO for the indicated time points, prior to flow cytometric analysis. (FIG. 1G) Quantification of lysosome formation as assessed by lysotracker MFI via flow cytometry after 24 h incubation at the presence of various UA concentrations (n=5/4/4). Depicts one out of two indepdent experiments. Data are mean ± SD, *p < 0.05; **p < 0.01 as established via two-sided t-test. (FIG. 1H) Mitotracker signal of APTK organoids incubated for 24 h at the presence of UA in vitro (n=4/4/4) and antigen presentation via MHC-I molecules (I) after 48 h of treatment (n=4/4/4). Results from one out of two independent experiments are shown. Data are mean ± SD, statistical analysis was performed via two-sided t-test, *p < 0.05; **p < 0.01, ****p < 0.0001. (FIG. 1I) Upregulation of MHC-I by UA. (FIG. 1J) Experimental setup of oral UA administration in mice with established APTK-s.c. tumors. Treatment diet was initiated eleven days after tumor injection and maintained until the end of the experiment. (FIG. 1K) Growth curve of mice subcutaneously transplanted with APTK tumors, receiving either UA-containing or control food (n=7 per group). Data are mean ± SD, ***p <0.001 by two-sided t-test. One out of two independent experiments are shown. (FIG. 1L) End point tumor weight, (FIG. 1M) CD8+ T cell infiltration in APTK-s.c. tumors assessed by flow cytometry, normalising total number of CD8^+ T cells to tumor weight (n=7 per group). Data are mean ± SD, statistical analysis was performed via Mann-Whitney test, *p < 0.05 and ***p <0.001. (FIG. 1N) Size of subcutaneous APTK tumors in Rag1^-/- mice receiving UA-containing or control food (n=7 per group). Treatment was initiated as depicted in FIG. 1J. Data are mean +-SD, depicting one out of two independent experiments. […]

[1] = tested on: CEA-expressing human CRC organoids; test: Killing of CEA-expressing CRC organoids by CEA-specific CAR T cells; format: cell-based; settings: 72 h co-culture
[2] = tested on: FoxP3+ T-regulatory cells; settings: cited from earlier work
[3] = tested on: CAR-T cells specific for carcinoembryonic antigen (CEA); test: UA applied to previously frozen CEA-specific CAR-T cells; format: cell-based, human
APTK-s.c. tumors = test: Oral UA in mice with established s.c. APTK tumors; format: in vivo, C57BL/6 mice
Description: as §1

[4] = high-dose UA diet (2.28 g/kg), 18 weeks

O=c1oc2cc(O)ccc2c2ccc(O)cc12 [Urolithin A]
tumor incidence (AOM-induced colon tumors; [4]): significant decrease | tumor size (AOM-induced colon tumors; [4]): significant decrease | infiltration of CD3+ T cells (AOM-induced colon tumors; high-dose UA diet, colons at week 24): increased infiltration of CD3^+T cells | tumor load (AOM-induced colon tumors; low-dose UA diet (0.57 g/kg), 18 weeks): did not have an effect on tumor load | killing efficacy of CEA-expressing human CRC organoids [1]: comparable killing efficacy | FoxP3+ T-regulatory cells [2]: expanding FoxP3+ T-regulatory cells | CAR TSCM formation [3]: strongly enhanced CAR TSCM formation | tumor growth (APTK-s.c. tumors; CD8+ T cell depleting antibodies, UA-containing or control food): exacerbated tumor growth in both control and UA-fed cohorts | tumor growth (APTK-s.c. tumors; UA-containing food plus a-PD1): sensitized APTK tumors to PD-1 blockade | CD8+ T cell infiltration (APTK-s.c. tumors; high-dose UA diet (2.28 g/kg)): enhanced CD8^+ T cell infiltration | tumor growth (APTK-s.c. tumors; high-dose UA diet (2.28 g/kg), started eleven days after tumor injection): significantly reduced tumor growth
